Reference: patent publication US20140206678A1, “INHIBITORS OF MTOR KINASE AS ANTI -VIRAL AGENT” (KADMON CORPORATION, LLC, priority 2011, published 2014)

Experiments:
[1] = system: mTORC1 targets (4EBP1, rpS6); test: Phosphorylation of mTORC1 targets in MCMV-infected MEFs (Western blot); assay type: cell-based, mouse; details: Torin1 250 nM; for 4EBP1 phosphorylation: MCMV
[2] = system: HCMV proteins IE1, pUL44, pUL99; test: Western blot of HCMV proteins in infected fibroblasts; assay type: cell-based, human cytomegalovirus; details: 6 to 96 hpi; rapamycin 20 nM, Torin1 250 nM; 3 PFU/cell
Experimental: (§1) FIG. 2. […] Serum-starved confluent fibroblasts were infected with HCMV at a multiplicity of 3 PFU/cell. […] Control cultures received the vehicle in which Torin1 was dissolved (NT). At 2 hpi cells were harvested, and cell-associated viral DNA was quantified by real-time PCR analysis. Error bars represent the standard errors of the means from two independent experiments performed in duplicate. […] The level of IE1 was determined at 6 hpi by a Western blot assay using an IE1-specific monoclonal antibody. The image is representative of two independent experiments. […] The expression of a GFP marker gene present in the viral genome was monitored at 24 h after infection in the presence or absence of drug.
FIG. 3. […] Cells were harvested at the indicated times, and the accumulation of the indicated proteins was analyzed by Western blotting. […] At the indicated times DNA was isolated, and viral DNA was quantified by qPCR. Equivalent amounts of DNA were analyzed for each sample, and the results are normalized to the level of actin DNA per sample. […] At the indicated times the amount of UL99 RNA was determined by qPCR, and the results are normalized to the amount of actin RNA in each sample. […]
Antibodies to pUL99 have been described previously (Silva, et al. J. Virol. (2003) 77:10594-10605). In addition, accumulation of HCMV DNA was monitored following infection using the methods described above.

HSV-1 = HSV-1 replication in MEFs, TCID50; assay type: cell-based, herpes simplex virus type 1; details: 72 hpi
HCMV [3] = test: GFP marker expression from the HCMV genome (percentage of infected cells); assay type: cell-based, human cytomegalovirus; details: 24 hpi; 250 nM
Experimental: as §1

eIF4F complex = test: Cap-binding (eIF4F) complex in MCMV-infected MEFs, m7G-Sepharose; assay type: cell-based, mouse; details: Torin1 250 nM, 48 hpi
Experimental: FIG. 7. […] At 6 days post infection the amount of MCMV in cell-free supernatants was determined by the TCID50 method. The error bars represent the standard errors of the means from three independent experiments, each performed in duplicate. […] At 48 hpi equal amounts of protein from cell lysates were incubated with m^7G-Sepharose. The presence of eIF4F complex components bound by the cap analog was determined by Western blotting. The results are representative of two independent experiments.

4EBP1 = 4EBP1 phosphorylation in HSV-1-infected MEFs (Western blot); assay type: cell-based, mouse; details: 8 hpi, 3 PFU/cell
Experimental: FIG. 8. Rapamycin-resistant mTOR activity is required for lytic replication by representative alpha- and gamma-herpesviruses. (A) Confluent serum-starved MEFs were infected at a multiplicity of 0.05 PFU/cell with HSV-1 or γHV68. The amount of virus in cell-free supernatants was determined by the TCID50 method at 72 hpi for HSV-1 (left) and at 6 days post infection for γHV68 (right). Black bars represent vehicle-treated samples (N) (DMSO), gray bars represent rapamycin-treated samples (R) (20 nM), and white bars represent Torin1-treated samples (T) (250 nM). The error bars represent the standard errors of the means from at least two independent experiments. (B) Confluent MEF monolayers were infected with HSV-1 at a multiplicity of 3 PFU/cell. Infected cell lysates were harvested at 8 hpi, and equal amounts of protein were analyzed by Western blotting. (C) WT or 4EBP1-null MEFs were infected with HSV-1 at a multiplicity of 0.05 PFU/cell. The amount of cell-free virus present in the supernatant at 72 hpi was quantified by the TCID50 method. The error bars represent the standard errors of the means from two independent experiments.

γHV68 = γHV68 replication in MEFs, TCID50; assay type: cell-based, murine gammaherpesvirus 68; details: 6 days post infection, rapamycin 20 nM, Torin1 250 nM
HCMV [4] = test: HCMV multistep growth in serum-starved human fibroblasts, cell-free virus by TCID50; assay type: cell-based, human cytomegalovirus
[5] = system: mTORC1 targets (4EBP1, rpS6); test: Phosphorylation of mTORC1 targets in HCMV-infected fibroblasts (Western blot); assay type: cell-based, human; details: rapamycin 20 nM, Torin1 250 nM
cells = details: concentrations of up to 500 nM; previous reports; cited from earlier work
MCMV = MCMV replication in mouse embryo fibroblasts, TCID50; assay type: cell-based, murine cytomegalovirus; details: Torin1 250 nM
[6] = 48 hpi, rapamycin 20 nM, LY294002 20 μM

## CCC(=O)N1CCN(c2ccc(-n3c(=O)ccc4cnc5ccc(-c6cnc7ccccc7c6)cc5c43)cc2C(F)(F)F)CC1 [Torin1]
[1]; [6]
  phosphorylation of 4EBP1 in MCMV-infected MEFs: inhibited
  phosphorylation of rpS6 in MCMV-infected MEFs: completely inhibited
[1]; Akt1/Akt2-null MEFs
  4EBP1 phosphorylation: inhibited
[1]; Rictor-null MEFs
  4EBP1 phosphorylation: effectively inhibited
[2]
  accumulation of immediate-early protein IE1: to a limited extent
  accumulation of late protein pUL99: dramatically reduced
HSV-1; MEFs, rapamycin 20 nM, Torin1 250 nM, 0.05 PFU/cell
  HSV-1 replication: inhibited
HSV-1; cells lacking 4EBP1
  production of HSV-1: failed to inhibit
HCMV [3]
  percentage of cells expressing GFP marker protein: did not alter
eIF4F complex; 4EBP1-null cells
  formation of the eIF4F complex: no such effect was observed
eIF4F complex; control cells
  formation of the eIF4F complex: inhibited the formation
4EBP1
  phosphorylation of 4EBP1 during HSV-1 infection: inhibited
γHV68
  γHV68 replication: inhibited
HCMV [4]; Human betaherpesvirus 5, Fibroblast, 192 h, read-out: IC50 for blocking production of HCMV progeny
  IC50: ~0.06 µM
HCMV [4]; cells had received 100 nM Torin1, 16 days post infection
  HCMV replication after removal of drug: completely recovered
HCMV [4]; cells had received 250 nM drug, 16 days post infection
  HCMV replication after removal of drug: substantially recovered
HCMV [4]; cultures initially received 1 mM drug, 16 days post infection
  HCMV replication after removal of drug: partially recovered
HCMV [4]; day 10, rapamycin 20 nM, Torin1 250 nM, 0.05 PFU/cell
  reduction of HCMV yield: about 160 fold
HCMV [4]; drug release, 16 days post infection
  increase in virus yield after reversal of an 8-day Torin1 treatment: > 100 fold
[5]
  phosphorylation of 4EBP1 during HCMV infection: substantially blocked
[5]; 48 hpi
  induction of rpS6 phosphorylation during HCMV infection: markedly inhibited
cells
  cell killing: does not kill cells
MCMV; 4EBP1-null MEFs, rapamycin 20 nM, 6 days post infection
  MCMV replication: no longer capable of inhibiting
MCMV; Akt1/Akt2-null MEFs
  MCMV replication: Torin-sensitive
MCMV; Rictor-null MEFs, 6 days post infection
  MCMV replication: effectively inhibited
MCMV; wild-type MEFs, rapamycin 20 nM, 0.05 PFU/cell
  MCMV replication: inhibited
